Results from patent publication US20040213755A1, “Compositions and methods for reducing odor” (priority 2000, published 2004).

How the values were obtained:
[1] = GC headspace analysis of odor emitting compound; conditions: 500 μL of 0.1% solution in water; % of control; 0% = complete removal
Experimental: (§1) The first odor reducing composition of the invention was 89% L-aspartic acid, 1% ZnO, and 10% Smellrite® zeolite (Invention #1). The second odor reducing composition of the invention was 88% L-aspartic acid, 2% ZnO, and 10% Smellrite® zeolite (Invention #2). The odor emitting compounds were tested neat, and triethylamine (0.1%), dimethylsulfide (0.1%), and isovaleric acid (0.82%) were also tested as solutions in water.
(§2) In the tests using the water solutions of the odor emitting compounds, 500 μL of the solutions were used for all samples.
(§3) Samples were prepared using 20 mL serum bottles with septum caps, and gas tight syringes were used to sample the headspace in the serum bottles. The sample was weighed into the serum bottle, the odor emitting compounds were added, and the sample bottles capped. The sample and the odor emitting compound in the serum bottle was mixed in each case. The serum bottle was then allowed to stand for 30 minutes and a 100 μL sample was taken from headspace of the serum bottle using a gas tight syringe and then injected into a gas chromatograph (GC) for analysis.
(§4) The GC analysis was performed using a H—P 5890-11 GC with a FID detector and a Split/Splitless injector, and a H—P 3396 integrator. The column used was a capillary H—P Ultra-2 (50 m×0.32 mm×0.52 μm). The GC conditions used were: injector temperature=300° C., detector temperature=330° C., oven temperature program=70° C. initial hold for 4 min., raise temperature 7° C./min. to 235° C., hold at 235° C. for 4 min. with total run length of 31.6 min. The split was turned off at injection and turned on after 30 seconds.
(§5) Complete removal of odor is represented as 0% and the control is 100%.

[2] = GC headspace analysis of odor emitting compound; conditions: 500 μL of 0.82% solution in water; % of control; 0% = complete removal
Experimental: as §1, §2, §3, §4, §5

[3] = GC headspace analysis of odor emitting compound; conditions: 500 μL of 0.1% solution in water; % of control; 0% = complete removal; remark: listed apart in the source
Experimental: as §1, §2, §3, §4, §5

SMILES	% Odor, Triethylamine (0.1% in water) [1] [%]	% Odor, Isovaleric acid (0.82% in water) [2] [%]	% Odor, Dimethylsulfide (0.1% in water) [3] [%]
O=C([O-])O.[Na+] [Baking soda, sodium bicarbonate]	19.	8.7	93.6
N[C@@H](CC(=O)O)C(=O)O [L-aspartic acid]	0	13.9	82.2
[O]=[Zn] [Zinc oxide, zinc oxide]	79.3	0	96.4
